Data as given in ChEMBL document CHEMBL5321215, “Discovery of quinazolin-4(3H)-one derivatives as novel AChE inhibitors with anti-inflammatory activities” (Eur J Med Chem, 2023).
pIC50, pKi: −log10 of the molar value. Active and inactive are the calls of the source. The rule behind the calls is not given here.

These compounds were tested against Acetylcholinesterase (Electrophorus electricus) (UniProt O42275) (assay: Inhibition of electric eel AChE using acetylthiocholine iodide as substrate at 20 uM incubated for 20 mins by Ellman's method relative to control). Conditions: not given.
Sequence of Acetylcholinesterase (Electrophorus electricus) (O42275 24-633 limits assumed): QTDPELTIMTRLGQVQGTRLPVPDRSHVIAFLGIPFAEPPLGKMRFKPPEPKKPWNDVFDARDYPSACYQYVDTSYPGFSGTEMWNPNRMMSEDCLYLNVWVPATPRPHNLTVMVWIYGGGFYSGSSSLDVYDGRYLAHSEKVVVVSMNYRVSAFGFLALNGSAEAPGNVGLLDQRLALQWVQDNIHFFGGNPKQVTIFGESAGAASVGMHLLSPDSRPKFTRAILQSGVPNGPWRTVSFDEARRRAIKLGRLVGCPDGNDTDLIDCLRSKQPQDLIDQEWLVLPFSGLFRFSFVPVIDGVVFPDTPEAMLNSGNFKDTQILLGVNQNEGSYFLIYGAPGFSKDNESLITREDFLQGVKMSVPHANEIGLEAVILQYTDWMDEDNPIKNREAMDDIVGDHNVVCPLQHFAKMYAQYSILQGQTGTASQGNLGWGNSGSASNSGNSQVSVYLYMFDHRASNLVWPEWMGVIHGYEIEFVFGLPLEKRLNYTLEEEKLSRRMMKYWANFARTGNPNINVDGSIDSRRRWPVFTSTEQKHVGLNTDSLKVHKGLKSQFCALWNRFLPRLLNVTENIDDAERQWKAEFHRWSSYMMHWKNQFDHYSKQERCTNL
With `COc1cc(-c2nc3ccc(NC(=O)c4ccc(Cl)cc4)cc3c(=O)[nH]2)cc(OC)c1OC` the inhibition was 10.6%.
Compound `COc1cc(OC)c2c(=O)[nH]c(-c3cn(Cc4ccccc4)cn3)nc2c1` has an inhibition of 87.9%.
`COc1cc(-c2nc3ccc(NC(=O)CCN4CCN(C)CC4)cc3c(=O)[nH]2)cc(OC)c1OC` gave an inhibition of 24.7%.
In the case of `COc1cc(-c2nc3ccc(NC(=O)c4ccc(F)cc4)cc3c(=O)[nH]2)cc(OC)c1OC`, the inhibition was 6.3%.
`CCN(CC)c1ccc(-c2nc3cc(OC)cc(OC)c3c(=O)[nH]2)cc1` showed an inhibition of 23.7%.
With `COc1cc(-c2nc3ccc(NCc4ccc(N5CCN(C)CC5)cc4)cc3c(=O)[nH]2)cc(OC)c1OC` the inhibition was 23.6%.
Compound `COc1cc(OC)c2c(=O)[nH]c(-c3nc[nH]c3C)nc2c1` has an inhibition of 60.8%.
With `COc1cc(OC)c2c(=O)[nH]c(-c3c[nH]cn3)nc2c1` the inhibition was 40.4%.
Compound `O=c1[nH]c(C2CCN(Cc3ccccc3)CC2)nc2ccccc12` has an inhibition of 63.3%.
In the case of `COc1cc(OC)c2c(=O)[nH]c(-c3cc(OC)c(OC)c(OC)c3)nc2c1`, the inhibition was 38.7%.

These compounds were tested against Cholinesterase (Equus caballus) (UniProt P81908) (assay: Inhibition of equine serum BChE at 20 uM by Ellman's method relative to control). Conditions: not given.
Sequence of Cholinesterase (Equus caballus) (P81908 whole entry): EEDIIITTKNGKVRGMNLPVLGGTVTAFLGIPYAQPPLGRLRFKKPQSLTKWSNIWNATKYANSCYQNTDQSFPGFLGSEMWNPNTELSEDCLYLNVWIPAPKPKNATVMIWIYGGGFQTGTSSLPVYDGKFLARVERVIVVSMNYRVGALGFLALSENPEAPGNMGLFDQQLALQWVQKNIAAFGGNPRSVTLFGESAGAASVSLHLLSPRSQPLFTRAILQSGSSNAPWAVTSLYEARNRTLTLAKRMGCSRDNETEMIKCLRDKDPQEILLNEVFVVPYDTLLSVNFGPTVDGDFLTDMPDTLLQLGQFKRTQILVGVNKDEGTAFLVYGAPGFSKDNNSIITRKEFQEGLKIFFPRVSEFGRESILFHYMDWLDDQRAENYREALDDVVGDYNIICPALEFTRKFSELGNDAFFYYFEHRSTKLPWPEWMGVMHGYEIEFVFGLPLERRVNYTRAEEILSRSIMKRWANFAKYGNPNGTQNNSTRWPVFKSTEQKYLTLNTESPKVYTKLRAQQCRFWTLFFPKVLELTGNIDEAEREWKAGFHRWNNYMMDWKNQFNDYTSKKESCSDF
Assay type: cell-free
Work on `COc1cc(-c2nc3ccc(NC(=O)c4ccc(Cl)cc4)cc3c(=O)[nH]2)cc(OC)c1OC` yielded an inhibition of 14.9%.
In the case of `COc1cc(OC)c2c(=O)[nH]c(-c3cn(Cc4ccccc4)cn3)nc2c1`, the inhibition was 95%.
In the case of `COc1cc(-c2nc3ccc(NC(=O)CCN4CCN(C)CC4)cc3c(=O)[nH]2)cc(OC)c1OC`, the inhibition was “inactive”.
In the case of `COc1cc(-c2nc3ccc(NC(=O)c4ccc(F)cc4)cc3c(=O)[nH]2)cc(OC)c1OC`, the inhibition was 12.7%.
With `CCN(CC)c1ccc(-c2nc3cc(OC)cc(OC)c3c(=O)[nH]2)cc1` the inhibition was “inactive”.
`COc1cc(-c2nc3ccc(NCc4ccc(N5CCN(C)CC5)cc4)cc3c(=O)[nH]2)cc(OC)c1OC` was tested, and the inhibition was “inactive”.
For `COc1cc(OC)c2c(=O)[nH]c(-c3nc[nH]c3C)nc2c1`, the inhibition was 25.9%.
`COc1cc(OC)c2c(=O)[nH]c(-c3c[nH]cn3)nc2c1` was tested, and the inhibition was 13.1%.
With `O=c1[nH]c(C2CCN(Cc3ccccc3)CC2)nc2ccccc12` the inhibition was 48.6%.
Work on `COc1cc(OC)c2c(=O)[nH]c(-c3cc(OC)c(OC)c(OC)c3)nc2c1` yielded an inhibition of 10.9%.

The compounds below were run against Acetylcholinesterase (Electrophorus electricus, UniProt O42275) (assay: Inhibition of electric eel AChE using acetylthiocholine iodide as substrate incubated for 20 mins by Ellman's method). Conditions: not given.
Sequence of Acetylcholinesterase (O42275 whole entry): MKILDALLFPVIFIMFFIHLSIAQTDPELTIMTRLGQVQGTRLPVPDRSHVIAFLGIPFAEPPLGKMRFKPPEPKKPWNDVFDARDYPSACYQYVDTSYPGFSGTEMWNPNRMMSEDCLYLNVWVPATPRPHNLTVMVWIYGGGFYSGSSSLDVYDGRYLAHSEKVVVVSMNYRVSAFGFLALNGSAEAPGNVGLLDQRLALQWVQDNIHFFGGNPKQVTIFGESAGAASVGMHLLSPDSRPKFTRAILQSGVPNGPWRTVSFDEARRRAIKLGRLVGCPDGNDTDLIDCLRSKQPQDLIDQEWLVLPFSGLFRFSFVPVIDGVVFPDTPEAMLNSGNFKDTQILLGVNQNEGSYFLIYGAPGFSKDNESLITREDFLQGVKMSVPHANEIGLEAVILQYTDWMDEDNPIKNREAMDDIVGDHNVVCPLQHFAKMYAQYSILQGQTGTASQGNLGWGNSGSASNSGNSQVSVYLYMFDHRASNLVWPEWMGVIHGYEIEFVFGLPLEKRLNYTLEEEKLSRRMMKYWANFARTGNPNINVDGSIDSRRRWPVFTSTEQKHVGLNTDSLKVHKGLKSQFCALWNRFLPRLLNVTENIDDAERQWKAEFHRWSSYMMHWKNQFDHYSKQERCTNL
`COc1cc(OC)c2c(=O)[nH]c(-c3cn(Cc4ccccc4)cn3)nc2c1` showed a pIC50 of 5.15.
`COc1cc(OC)c2c(=O)[nH]c(-c3nc[nH]c3C)nc2c1` gave a pIC50 of 4.55.

Each compound was assayed against T1, Cholinesterase (Equus caballus, UniProt P81908) (assay: Inhibition of equine serum BChE by Ellman's method). Conditions: not given.
T1 sequence (P81908 whole entry): as the sequence (P81908 whole entry) above
Assay type: cell-free
`COc1cc(OC)c2c(=O)[nH]c(-c3cn(Cc4ccccc4)cn3)nc2c1` gave a pIC50 of 6.08.
Compound `COc1cc(OC)c2c(=O)[nH]c(-c3nc[nH]c3C)nc2c1` has a pIC50 of less than 4.70.

Each compound was assayed on RAW264.7 (assay: Antiinflammatory activity against mouse RAW264.7 cells assessed as inhibition of LPS-induced nitric oxide production at 20 uM preincubated for 24 hrs followed by LPS stimulation by Griess reagent-based colorimetric assay relative to control). Conditions: not given.
Assay type: functional
Parameters: scale not given: the % may be the effect or the level left
In the case of `COc1cc(OC)c2c(=O)[nH]c(-c3cn(Cc4ccccc4)cn3)nc2c1`, the Activity was 33.4%.
In the case of `COc1cc(OC)c2c(=O)[nH]c(-c3nc[nH]c3C)nc2c1`, the Activity was 61.2%.

Each compound was assayed on BV-2 (assay: Cytotoxicity against mouse BV-2 cells assessed as reduction in cell viability at 10 uM incubated for 24 hrs by CCK-8 assay). Conditions: bv-2, 24 h.
Assay type: toxicity, cell-based
`COc1cc(OC)c2c(=O)[nH]c(-c3cn(Cc4ccccc4)cn3)nc2c1` was tested, and the Activity was “Toxic”.

The compounds below were run against T1, Cholinesterase (assay: Mixed type inhibition of equine serum BChE assessed as inhibition constant by Lineweaver-Burk plot analysis). Conditions: not given.
Assay type: cell-free
`COc1cc(OC)c2c(=O)[nH]c(-c3cn(Cc4ccccc4)cn3)nc2c1` was tested, and the pKi was 6.13.

Each compound was assayed against Cholinesterase (Equus caballus) (UniProt P81908) (assay: Mixed type inhibition of equine serum BChE assessed as Kis by Lineweaver-Burk plot analysis). Conditions: not given.
Assay type: cell-free
In the case of `COc1cc(OC)c2c(=O)[nH]c(-c3cn(Cc4ccccc4)cn3)nc2c1`, the Kis was 8.58 µM.

These compounds were tested against Cholinesterase (Equus caballus) (UniProt P81908) (assay: Mixed type inhibition of equine serum BChE assessed as increase in slope and Y-intercept at increasing concentration by Lineweaver-Burk plot analysis). Conditions: not given.
Assay type: cell-free
`COc1cc(OC)c2c(=O)[nH]c(-c3cn(Cc4ccccc4)cn3)nc2c1` was tested, and the inhibition was “Active”.
